From US9663463B2, “3-azabicyclo[3.1.0]hexane derivative and use thereof for medical purpose” (priority 2013, dated 2017)
Where a name gives a salt, the structure may show the parent alone.

Legend:
hERG current = hERG current (Homo sapiens (Human), UniProt Q12809); test: cell-based
Excerpt: A: the suppression rate (%) of the test substance in each cell
B: the average suppression rate (%) of the vehicle control group

[1] = tested on: pruritus mice model to which morphine had been intracisternally administered; test: Anti-pruritic effect in pruritus mice model to which morphine had been intracisternally administered; format: in vivo; conditions: Mus musculus; oral administration, male ICR mice, inhibition of morphine-induced scratching behavior; read-out: ED50
Experimental: As experimental animals, male ICR (Cr1j: CD1 (ICR): Charles River Japan) mice were used at 5 to 6-week old. The mice were placed in an acrylic cage (colorless and transparent, W 13.5 cm×D 9.5 cm×H 40 cm) for observing scratching behavior for 30 minutes or more to thereby allow the mice to get used to the observation environment, and the test substance solutions were forcedly orally administered to the test substance-administered groups. In addition, an administration vehicle was forcedly orally administered to the normal control group and the pathological control group. A necessary amount of the test substance was weighed and formed into a micropowder in an agate mortar, an administration vehicle, a 0.5 w/v % methyl cellulose 400 solution (Wako Pure Chemical Industries Ltd.) was added little by little, and preparation was performed by suspending or dissolving so as to give an intended concentration (from 0.025 to 3 mg/ml). The test doses were preset to suitable doses in the range in which the maximum dose is 30 mg/10 ml/kg.
Based on 30 minutes after the forced oral administration of the test substance as a criterion, the time for the intracisternal administration of morphine was suitably set up to 120 minutes after at the maximum, with consideration for the times of maximum plasma concentration of the respective test substances, in the case when the in vivo pharmacokinetics of the test substance had been confirmed in advance. Furthermore, saline was intracisternally administered to the normal control group, and the above-mentioned morphine solution was intracisternally administered to the pathogenic control group, so as to be 5 μL/site at the same time as that of the test substance group after the forced oral administration of the administration vehicle in either case.
The behavior of each mouse within 60 minutes from the intracisternal administration of the morphine solution or saline was recorded by a digital video camera that was installed immediately above the acrylic cage, the images were stored in a digital video recorder, and the number of frequency of the scratching behavior was measured. The number of frequency of the scratching behavior was measured with deeming a behavior in which the mouse raised its hindlimb, scratched the facial surface and the peripheral sites thereof, and got the hindlimb off from the body within 30 minutes from after the intracisternal administration of the morphine or saline as one time.
The anti-pruritic effect of each test substance was obtained as follows. As an inhibition ratio against the number of frequency of the scratching behavior on the pathological control group, the inhibition ratio (%) of the respective individuals and the average value thereof were calculated from the following formula, and an ED50 value was calculated based on the obtained inhibition ratio. Inhibition ratio of each individual (%)={1−(A−Vehicle)/(Morphine−Vehicle)}×100 Morphine: the average of the scratching number of the pathological control group Vehicle: the average of the scratching number of the normal control group A: the scratching number of each individual in the test substance-administered group

human μ-opioid receptor = human μ-opioid receptor (Homo sapiens (Human), UniProt P35372); test: Antagonist activity test using [35S]-GTPγS bond as index using human μ-opioid receptor-expressing cell membrane; format: biochemical

Chain of hERG current (Q12809 whole entry): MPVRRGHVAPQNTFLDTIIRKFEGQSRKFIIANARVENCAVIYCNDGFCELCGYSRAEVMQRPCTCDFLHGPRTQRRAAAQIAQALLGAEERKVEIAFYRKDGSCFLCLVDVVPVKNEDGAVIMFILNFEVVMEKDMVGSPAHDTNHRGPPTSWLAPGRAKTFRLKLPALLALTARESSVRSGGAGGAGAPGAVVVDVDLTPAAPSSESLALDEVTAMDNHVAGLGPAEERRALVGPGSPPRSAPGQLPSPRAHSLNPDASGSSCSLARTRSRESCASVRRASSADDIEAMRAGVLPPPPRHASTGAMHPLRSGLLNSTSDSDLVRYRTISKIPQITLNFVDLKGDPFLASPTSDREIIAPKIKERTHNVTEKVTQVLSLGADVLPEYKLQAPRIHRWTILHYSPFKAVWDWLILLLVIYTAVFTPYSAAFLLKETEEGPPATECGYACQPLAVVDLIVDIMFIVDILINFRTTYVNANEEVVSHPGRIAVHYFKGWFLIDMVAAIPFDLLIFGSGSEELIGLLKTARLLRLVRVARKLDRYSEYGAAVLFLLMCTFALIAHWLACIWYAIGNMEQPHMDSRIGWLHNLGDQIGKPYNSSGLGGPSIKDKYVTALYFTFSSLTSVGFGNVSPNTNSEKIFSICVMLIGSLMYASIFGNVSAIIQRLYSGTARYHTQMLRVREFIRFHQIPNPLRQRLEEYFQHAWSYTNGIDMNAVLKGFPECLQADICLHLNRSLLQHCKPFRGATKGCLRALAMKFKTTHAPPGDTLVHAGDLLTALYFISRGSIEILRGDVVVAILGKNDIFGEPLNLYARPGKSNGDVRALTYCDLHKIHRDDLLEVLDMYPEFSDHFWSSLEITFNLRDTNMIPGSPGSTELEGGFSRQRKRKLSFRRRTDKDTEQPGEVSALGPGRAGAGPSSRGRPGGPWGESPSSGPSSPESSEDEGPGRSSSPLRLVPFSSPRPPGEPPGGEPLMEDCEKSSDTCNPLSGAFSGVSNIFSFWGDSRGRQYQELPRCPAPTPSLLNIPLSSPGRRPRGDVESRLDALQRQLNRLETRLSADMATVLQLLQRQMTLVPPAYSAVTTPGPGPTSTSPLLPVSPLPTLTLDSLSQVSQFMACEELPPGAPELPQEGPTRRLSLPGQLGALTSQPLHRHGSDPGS

| SMILES | IC50 (hERG current) [nM] | ED50 [1] [mg/kg] | IC50 (human μ-opioid receptor) [nM] |
| --- | --- | --- | --- |
| CC[C@]1(c2cc(NS(=O)(=O)C3CC3)ccc2F)[C@@H]2CN(CCCC3CCC(F)(F)CC3)C[C@@H]21 [Example 5-(b), N-(3-{(1R,5S,6r)-3-[3-(4,4-difluorocyclohexyl)propyl]-6-ethyl-3-azabicyclo[3.1.0]hexan-6-yl}-4-fluorophenyl)cyclopropanesulfonamide hydrochloride] | 89 | 1.7 | 1.6 |
| CC[C@]1(c2cc(NS(=O)(=O)C3CC3)ccc2F)[C@@H]2CN(CCCN3CCC(F)(F)CC3)C[C@@H]21 [Example 15-(b), N-(3-{(1R,5S,6r)-3-[3-(4,4-difluoropiperidin-1-yl)propyl]-6-ethyl-3-azabicyclo[3.1.0]hexan-6-yl}-4-fluorophenyl)cyclopropanesulfonamide hydrochloride] | 1300 | 3.1 | 1.7 |
| CC[C@]1(c2cc(F)cc(NS(=O)(=O)C3CC3)c2)[C@@H]2CN(CC3(O)Cc4ccccc4C3)C[C@@H]21 [Example 10-(b), N-(3-{(1R,5S,6r)-6-ethyl-3-[(2-hydroxy-2,3-dihydro-1H-inden-2-yl)methyl]-3-azabicyclo[3.1.0]hexan-6-yl}-5-fluorophenyl)cyclopropanesulfonamide hydrochloride] | 62 | 1.8 | 3.2 |
| CC[C@]1(c2cccc(NS(=O)(=O)C3CC3)c2)[C@@H]2CN(CCCN3CCC(F)(F)C3)C[C@@H]21 [Example 8-(b), N-(3-{(1R,5S,6r)-3-[3-(3,3-difluoropyrrolidin-1-yl)propyl]-6-ethyl-3-azabicyclo[3.1.0]hexan-6-yl}phenyl)cyclopropanesulfonamide hydrochloride] | 340 | 2 | 2.9 |
| CC[C@]1(c2cc(NS(=O)(=O)C3CC3)ccc2F)[C@@H]2CN(CC3(O)Cc4ccccc4C3)C[C@@H]21 [Example 2-(b), N-(3-{(1R,5S,6r)-6-ethyl-3-[(2-hydroxy-2,3-dihydro-1H-inden-2-yl)methyl]-3-azabicyclo[3.1.0]hexan-6-yl}-4-fluorophenyl)cyclopropanesulfonamide hydrochloride] | 160 | 0.83 | 2 |
| CC[C@]1(c2cccc(NS(=O)(=O)C3CC3)c2)[C@@H]2CN(CCCC3CCC(F)(F)CC3)C[C@@H]21 [Example 4-(b), N-(3-{(1R,5S,6r)-3-[3-(4,4-difluorocyclohexyl)propyl]-6-ethyl-3-azabicyclo[3.1.0]hexan-6-yl}phenyl)cyclopropanesulfonamide hydrochloride] | 94 | 0.5 | 1.5 |
| CC[C@]1(c2cccc(NS(=O)(=O)C3CC3)c2)[C@@H]2CN(CCCN3CCCC(F)(F)C3)C[C@@H]21 [Example 16-(b), N-(3-{(1R,5S,6r)-3-[3-(3,3-difluoropiperidin-1-yl)propyl]-6-ethyl-3-azabicyclo[3.1.0]hexan-6-yl}phenyl)cyclopropanesulfonamide hydrochloride] | 640 | 5.7 | 3.1 |
